The values that follow are results of earlier work, collected in patent publication US5935604A (Danbiosyst UK Limited, priority 1993, dated 1999).

For series [1] the following is noted: in vivo.
For series [2] the following is noted: man, single doses of 1 mg.
For series [3] the following is noted: nasal.

Regarding `Cc1ncccc1C1CCCN1C` (stereo not shown) [2-methyl nicotine], the “side-effects on the heart” value with heart is recorded as “reduced side-effects on the heart”.

For the compound `CN1CCCC1c1cccnc1` (stereo not shown) [nicotine], in series [1], the potential side effects result was “sleep disturbances and nightmares can result”. In series [2] (nasal), the rate of absorption result is listed as “fast” and the “time to maximum concentration” value is at most 10 min. The “differences for different nasal treatments” value in series [2] is recorded as “No differences could be found”. Besides, the “nicotine peak plasma levels” value (regular smokers of 15 or more cigarettes per day, daytime average) is listed as “about 35 μg/l”. Besides, the “dose of systemically available nicotine absorbed per cigarette” value (regular smokers, average) is “about 1 mg”. Further, under “smoking a cigarette”, the “interval between taking a puff and nicotine arriving in the brain” value is 10 to 20 s. In addition, for the setting “two minutes after the first cigarette, 2 min”, the plasma nicotine level result is recorded as “about 13 μg/l”.

Regarding Gentamicin, in series [3], the “absorption with bioadhesive microsphere system” value was “increase the absorption”.
